Ends that are not written are not given here.
Tests used:
Type in all cases: cell-based, human
[1] = test system: SEA1-specific T-cells; assay: Effect of C-terminal amidation on sensitizing Ag-specific IFNγ T cells; details: FIG. 9; one healthy donor; versus SEA1 without C-terminal amidation
Excerpt: Amidated polypeptides were amidated at the C-terminus as described elsewhere (see, e.g., Brinckerhoff et al., Int. J. Cancer 83 (3): 326-34 (1999)).
A cocktail of peptides such as SEA1, SEA1-amide, acetyl-SEA1 and acetyl-SEA1-amide can be used to capture a broadened SEA1 response (or similarly for any other peptide).

[2] = test system: T-cells; assay: PBMC culture pulsed with long polypeptide, restimulation, intracellular cytokine (IFNγ) assay, healthy donors; parameters: key to Testing (confirmed immunogenicity in healthy donors): *: Represents polypeptides confirmed to be immunogenic in 4/4 healthy donors.; ¶: Represents polypeptides confirmed to be immunogenic in one healthy donor; details: for immunogenicity (frequency of antigen-specific T-cells): FIGS. 4C and 4D, unvaccinated HLA-A2.1+ healthy volunteers; for immune response by antigen specific IFNγ production: FIGS. 4C and D, CD4+ and CD8+ T cells, four healthy donors, background subtracted
Procedure: The SEA polypeptides, CMV long polypeptide, and VNTR polypeptide were tested in a culture system. Briefly, bulk peripheral blood mononuclear cells (PBMC) were thawed and exposed to GM-CSF on day 0 in culture. […] On day 2, media was washed out, and the cells were split 1:6 in fresh media containing IL-7 for T-cell expansion. Further splits occurred with simple addition of more media containing IL-7 depending upon acidity of the media between days 7-15. On day 16, an antigen specific restimulation of T-cell cultures was performed utilizing fresh PBMC as the antigen presenting cells. These fresh PBMC were thawed on day 14 and treated the same way as the initial culture on days 0-1, before being used on day 16. At the time of restimulation, an intracellular cytokine assay was performed. The T-cell cultures also were allowed to proliferate for an additional […] in media containing IL-7. At the end of culture, day 28, T-cells were further tested with a new intracellular cytokine assay utilizing fresh PBMC, prepared the same way as the PBMC used on day 16 for the first intracellular cytokine assay. Representative dot-plots for IFNγ levels are shown for the CMV pp65 polypeptide and the SEA2 polypeptide, with levels being much lower when T-cells were not restimulated with the same polypeptide they saw at the initiation of culture. […] Each data point represents the level of IFNγ after subtracting the levels of IFNγ from restimulation with irrelevant polypeptides or no polypeptide from levels when T-cells were restimulated with the original polypeptide.
The synthesized long peptides were individually pulsed onto GM+R848+LPS conditioned PBMC cultures established from unvaccinated HLA-A2.1+ healthy volunteers, then expanded in rhIL-7 or rhIL-7+rhIL-2. […] Proliferation of CD4+ and CD8^+ T-cells was indistinguishable, with both subsets retaining their initial proportionality during expansion.

[3] = test system: MDA-MB-231.MUC1; assay: Cr51 release lysis by peptide-driven T-cells; details: T-cells from 3 donors; FIG. 6
Excerpt: T-cells from GM+R848+LPS conditioned PBMC driven by either SEA2 or SEA1 long peptides not only specifically recognized one or both of these sensitizing peptides at restimulation, but also preferentially lysed the HLA-A2.1+ human breast cancer line MDA-MB-231 transduced to express MUC1 (MDA-MB-231.MUC1) compared to MDA-MB-231.Neo control targets. […] Polyclonally driven T-cells from all 3 donors lysed MDA-MB-231.MUC1 indistinguishably from MDA-MB-231.Neo.

Substance: SPQLSTGVSFFFLSFHISNLQFNSSLEDPSTD-amide (SPQLSTGVSFFFLSFHISNLQFNSSLEDPSTD-NH2) [SEA1-amide, SEA1 amidated at the C-terminus]
- SEA1-specific CD8+ T-cell response [1]: less affected by amidation
- sensitizing SEA1-specific CD4+ IFNγ-producing T-cells [1]: far superior

Substance: AHGVTSAPDTRPAPGSTAPPAHGV [VNTR, reference compound]
- immunogenicity (frequency of antigen-specific T-cells) [2]: reproducibly less effective

Substance: 14 (YQDTILWKDIFHKNNQLALTLIDTNRSRACHPC; immunogenic polypeptide) [compound 14]
- Testing (confirmed immunogenicity in healthy donors) [2]: ¶/HER2

Substance: SQEPMSIYVYALPLKMLNIPSINVHHYP [SEQ ID NO: 1]
- immunogenicity (frequency of antigen-specific T-cells) [2]: highly immunogenic
- immune response by antigen specific IFNγ production [2]: consistently exhibited an immune response

Substance: 6 (STDYYQELQRDISEMFLQIYKQGGFLGLSNIKFRPGSVV; immunogenic polypeptide) [compound 6]
- Testing (confirmed immunogenicity in healthy donors) [2]: */MUC1

Substance: 18 (DLSVFQNLQVIRGRILHNGAYSLTLQGLG; immunogenic polypeptide) [compound 18]
- Testing (confirmed immunogenicity in healthy donors) [2]: ¶/HER2

Substance: STDYYQELQRDISEMFLQIYKQGGFLGLSNIKFRPGSVV [SEA2]
- immunogenicity (frequency of antigen-specific T-cells) [2]: highly immunogenic
- immune response by antigen specific IFNγ production [2]: consistently exhibited an immune response
- lysis of MDA-MB-231.MUC1 compared to MDA-MB-231.Neo control targets [3]: significantly more

Substance: 57 (GVGSPYVSRLLGICLTSTVQLV; immunogenic polypeptide) [compound 57]
- Testing (confirmed immunogenicity in healthy donors) [2]: ¶/HER2

Substance: 26 (GVGSPYVSRLLGICLTSTVQLVTQLM; immunogenic polypeptide) [compound 26]
- Testing (confirmed immunogenicity in healthy donors) [2]: ¶/HER2

Substance: 33 (SECRPRFRELVSEFSRMARDPQRFVVIQ; immunogenic polypeptide) [compound 33]
- Testing (confirmed immunogenicity in healthy donors) [2]: ¶/HER2

Substance: SPQLSTGVSFFFLSFHISNLQFNSSLEDPSTD [SEA1]
- immunogenicity (frequency of antigen-specific T-cells) [2]: highly immunogenic
- immune response by antigen specific IFNγ production [2]: consistently exhibited an immune response
- lysis of MDA-MB-231.MUC1 compared to MDA-MB-231.Neo control targets [3]: significantly more

Substance: 24 (IKRRQQKIRKYTMRRLLQETELVEPLTPS; immunogenic polypeptide) [compound 24]
- Testing (confirmed immunogenicity in healthy donors) [2]: ¶/HER2

Substance: 17 (VFETLEEITGYLYISAWPDSLPDLSV; immunogenic polypeptide) [compound 17]
- Testing (confirmed immunogenicity in healthy donors) [2]: ¶/HER2

Substance: 30 (DGGKVPIKWMALESILRRRFTHQS; immunogenic polypeptide) [compound 30]
- Testing (confirmed immunogenicity in healthy donors) [2]: ¶/HER2

Substance: 7 (VHDVETQFNQYKTEAASRYNLTISDVSVSDVPFP; immunogenic polypeptide) [compound 7]
- Testing (confirmed immunogenicity in healthy donors) [2]: */MUC1

Substance: 5 (STSPQLSTGVSFFFLSFHISNLQFNSSLEDPSTD; immunogenic polypeptide) [compound 5]
- Testing (confirmed immunogenicity in healthy donors) [2]: */MUC1

Substance: 13 (TEILKGGVLIQRNPQLCYQDTILWKDIFH; immunogenic polypeptide) [compound 13]
- Testing (confirmed immunogenicity in healthy donors) [2]: ¶/HER2

Substance: 29 (DLAARNVLVKSPNHVKITDFG; immunogenic polypeptide) [compound 29]
- Testing (confirmed immunogenicity in healthy donors) [2]: ¶/HER2

Substance: 11 (LSFLQDIQEVQGYVLIAHNQVRQVPLQRL; immunogenic polypeptide) [compound 11]
- Testing (confirmed immunogenicity in healthy donors) [2]: ¶/HER2

Substance: 3 (NRPALGSTAPPVHNVTSASGSASGSASTLV; immunogenic polypeptide) [compound 3]
- Testing (confirmed immunogenicity in healthy donors) [2]: */MUC1

Substance: 20 (ELGSGLALIHHNTHLCFVHTVPW; immunogenic polypeptide) [compound 20]
- Testing (confirmed immunogenicity in healthy donors) [2]: ¶/HER2

Substance: 12 (AHNQVRQVPLQRLRIVRGTQLFEDNYALA; immunogenic polypeptide) [compound 12]
- Testing (confirmed immunogenicity in healthy donors) [2]: ¶/HER2

Substance: 16 (NIQEFAGCKKIFGSLAFLPESFDGDP; immunogenic polypeptide) [compound 16]
- Testing (confirmed immunogenicity in healthy donors) [2]: ¶/HER2
